The assay has as its target T1, human H3R (Homo sapiens, UniProt Q9Y5N1).
T1 construct: expressed in transfected cells; host or cells: CHO cells
Put plainly: Competition binding assay with 3H-(R)α-methylhistamine on membranes of the human H3R-CHO cell line. The note with it: competition with 3H(R)α-methylhistamine (1 nM), Ki calculated from IC50 by Cheng-Prusoff. How it is done: Binding Assay with ^3H—(R)α-methylhistamine
Saturation binding experiments were performed using HR3-(CHO membranes prepared as described in Takahashi, K, Tokita, S., Kotani, H. (2003) J. Pharmacol. Exp. Therapeutics 307, 213-218.
An appropriate amount of membrane (60 to 80 μg protein/well) was incubated with increasing concentrations of ^3H(R)α-Methylhistamine di-hydrochloride (0.10 to 10 nM). Non specific binding was determined using a 200 fold excess of cold (R)α-Methylhistamine dihydrobromide (500 nM final concentration). The incubation was carried out at room temperature (in deep-well plates shaking for three hours). The final volume in each well was 250 μl. The incubation was followed by rapid filtration on GF/B filters (pre-soaked with 100 μl of 0.5% PEI in Tris 50 mM shaking at 200 rpm for two hours). The filtration was made using a cell-harvester and the filter plates were then washed five times with ice cold washing buffer containing 0.5 M NaCl. After harvesting, the plates were dried at 55° C. for 60 min, then we added scintillation fluid (Microscint 40, 40 microl in each well) and the amount of radioactivity on the filter was determined in Packard top-counter after shaking the plates for two hours at 200 rpm at room temperature.
Binding Buffer: 50 mM Tris-HCl pH 7.4 and 5 mM MgCl2×6H2O pH 7.4. Washing Buffer: 50 mM Tris-HCl pH 7.4 and 5 mM MgCl2×6H2O and 0.5 M NaCl pH 7.4.
Indirect measurement of affinity of H3R inverse agonists: twelve increasing concentrations (ranging from 10 μM to 0.3 nM) of the selected compounds were always tested in competition binding experiments using membrane of the human H3R—CHO cell line. An appropriate amount of protein, e.g. approximately 500 cpm binding of RAMH at Kd, were incubated for 1 hour at room temperature in 250 μl final volume in 96-well plates in presence of ^3H(R)α-methylhistamine (1 nM final concentration=Kd). Non-specific binding was determined using a 200 fold excess of cold (R)α-methylhistamine dihydrobromide.
All compounds were tested at a single concentration in duplicate. […] The concentration at which 50% inhibition of the radioligand ^3H(R)α-methylhistamine is obtained (the IC50) is determined from the linear regression of a plot of the logarithm of the concentration versus percent inhibition measured for the different concentrations. Ki's were calculated from IC50 based on Cheng-Prusoff equation (Cheng, Y, Prusoff, W H (1973) Biochem Pharmacol 22, 3099-3108): Ki=IC50/[1+D/Kd] wherein D is the concentration of the radioligand and Kd is the binding constant for the radioligand binding to the receptor under the conditions used in the competition experiment.
T1 sequence (Q9Y5N1 whole entry): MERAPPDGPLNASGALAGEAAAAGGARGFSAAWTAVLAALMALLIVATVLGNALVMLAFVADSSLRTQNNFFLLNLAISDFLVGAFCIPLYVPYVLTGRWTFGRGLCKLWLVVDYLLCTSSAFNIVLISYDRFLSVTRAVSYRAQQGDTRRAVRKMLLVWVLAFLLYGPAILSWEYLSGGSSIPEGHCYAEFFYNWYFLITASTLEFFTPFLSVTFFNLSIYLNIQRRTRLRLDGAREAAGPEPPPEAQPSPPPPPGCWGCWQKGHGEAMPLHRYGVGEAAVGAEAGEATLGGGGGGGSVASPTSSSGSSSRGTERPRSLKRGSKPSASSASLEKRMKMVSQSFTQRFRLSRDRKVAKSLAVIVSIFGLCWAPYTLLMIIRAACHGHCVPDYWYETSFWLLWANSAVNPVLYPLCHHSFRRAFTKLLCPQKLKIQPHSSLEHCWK
In the case of `O=C(N1CCOCC1)N1CCc2sc(OCCCN3CCCCC3)cc2C1` [Example 1, Morpholin-4-yl-[2-(3-piperidin-1-yl-propoxy)-6,7-dihydro-4H-thieno[3,2-c]pyridin-5-yl]-methanone], the Ki was 35.7 nM.
To `CC1CCC(CC(=O)N2CCc3sc(OC4CCN(C(C)C)C4)cc3C2)CC1` (centres unmarked) [Example 90, 1-[2-(1-isopropyl-pyrrolidin-3-yloxy)-6,7-dihydro-4H-thieno[3,2-c]pyridin-5-yl]-2-(4-methyl-cyclohexyl)-ethanone] belongs 21.7 nM; to `Cc1ccccc1S(=O)(=O)N1CCc2sc(OCCCN3CCCC3)cc2C1` [Example 56, 2-(3-pyrrolidin-1-yl-propoxy)-5-(toluene-2-sulfonyl)-4,5,6,7-tetrahydro-thieno[3,2-c]pyridine], 27.3 nM.
For `CCCC(=O)N1CCc2sc(OCCCN3CCCCC3)cc2C1` [Example 33, 1-[2-(3-piperidin-1-yl-propoxy)-6,7-dihydro-4H-thieno[3,2-c]pyridin-5-yl]-butan-1-one], the Ki was 44.4 nM.
Take `O=C(NCc1ccccc1)N1CCc2sc(OCCCN3CCCC3)cc2C1` [Example 48, 2-(3-pyrrolidin-1-yl-propoxy)-6,7-dihydro-4H-thieno[3,2-c]pyridine-5-carboxylic acid benzylamide]: the Ki was 31.7 nM.

What is called Ki is a dissociation constant, usually derived from enzyme kinetics or from competition with a known ligand.

(Values after patent US7557101B2, “4,5,6,7-tetrahydro-thieno[3,2-c] pyridine derivatives” (Hoffman-La Roche Inc., priority 2006, dated 2009).)
